Measurements reported in ChEMBL document CHEMBL4004849, “Tetrazolylmethyl quinolines: Design, docking studies, synthesis, anticancer and antifungal analyses” (2017).
In brackets after ≈: the same amount, converted by molar mass. Activity calls are given as the source filed them. The calls are words filed in the database; no cut-off is given here.

Experiments:
Type in all cases: functional
UACC-62 = experiment: Growth inhibition of human UACC62 cells at 10^-5 M incubated for 48 hrs by sulforhodamine B assay relative to control
SF-539 = experiment: Growth inhibition of human SF539 cells at 10^-5 M incubated for 48 hrs by sulforhodamine B assay relative to control
786-0 = experiment: Growth inhibition of human 786-0 cells at 10^-5 M incubated for 48 hrs by sulforhodamine B assay relative to control
MDA-MB-231 = experiment: Growth inhibition of human MDA-MB-231/ATCC cells at 10^-5 M incubated for 48 hrs by sulforhodamine B assay relative to control
UACC-257 = experiment: Growth inhibition of human UACC257 cells at 10^-5 M incubated for 48 hrs by sulforhodamine B assay relative to control
SNB-75 = experiment: Growth inhibition of human SNB75 cells at 10^-5 M incubated for 48 hrs by sulforhodamine B assay relative to control
HCC 2998 = experiment: Growth inhibition of human HCC2998 cells at 10^-5 M incubated for 48 hrs by sulforhodamine B assay relative to control
Malme-3M = experiment: Growth inhibition of human MALME-3M cells at 10^-5 M incubated for 48 hrs by sulforhodamine B assay relative to control
LOX IMVI = experiment: Growth inhibition of human LOXIMVI cells at 10^-5 M incubated for 48 hrs by sulforhodamine B assay relative to control
Candida albicans [1] = experiment: Antifungal activity against Candida albicans after 24 hrs by serial dilution method
M14 = experiment: Growth inhibition of human M14 cells at 10^-5 M incubated for 48 hrs by sulforhodamine B assay relative to control
OVCAR-8 = experiment: Growth inhibition of human OVCAR8 cells at 10^-5 M incubated for 48 hrs by sulforhodamine B assay relative to control
HCT-15 = experiment: Growth inhibition of human HCT15 cells at 10^-5 M incubated for 48 hrs by sulforhodamine B assay relative to control
SK-MEL-28 = experiment: Growth inhibition of human SK-MEL-28 cells at 10^-5 M incubated for 48 hrs by sulforhodamine B assay relative to control
NCI-H460 = experiment: Growth inhibition of human NCI-H460 cells at 10^-5 M incubated for 48 hrs by sulforhodamine B assay relative to control
UO-31 = experiment: Growth inhibition of human UO31 cells at 10^-5 M incubated for 48 hrs by sulforhodamine B assay relative to control
MCF7 = experiment: Growth inhibition of human MCF7 cells at 10^-5 M incubated for 48 hrs by sulforhodamine B assay relative to control
SNB-19 = experiment: Growth inhibition of human SNB19 cells at 10^-5 M incubated for 48 hrs by sulforhodamine B assay relative to control
MDA-MB-435 = experiment: Growth inhibition of human MDA-MB-435 cells at 10^-5 M incubated for 48 hrs by sulforhodamine B assay relative to control
COLO 205 = experiment: Growth inhibition of human COLO205 cells at 10^-5 M incubated for 48 hrs by sulforhodamine B assay relative to control
ACHN = experiment: Growth inhibition of human ACHN cells at 10^-5 M incubated for 48 hrs by sulforhodamine B assay relative to control
KM12 = experiment: Growth inhibition of human KM12 cells at 10^-5 M incubated for 48 hrs by sulforhodamine B assay relative to control
NCI/ADR-RES = experiment: Growth inhibition of human NCI-ADR-RES cells at 10^-5 M incubated for 48 hrs by sulforhodamine B assay relative to control
TK-10 = experiment: Growth inhibition of human TK10 cells at 10^-5 M incubated for 48 hrs by sulforhodamine B assay relative to control
HL-60(TB) = experiment: Growth inhibition of human HL-60(TB) cells at 10^-5 M incubated for 48 hrs by sulforhodamine B assay relative to control
SK-MEL-5 = experiment: Growth inhibition of human SK-MEL-5 cells at 10^-5 M incubated for 48 hrs by sulforhodamine B assay relative to control
T47D = experiment: Growth inhibition of human T47D cells at 10^-5 M incubated for 48 hrs by sulforhodamine B assay relative to control
K562 = experiment: Growth inhibition of human K562 cells at 10^-5 M incubated for 48 hrs by sulforhodamine B assay relative to control
SF-295 = experiment: Growth inhibition of human SF295 cells at 10^-5 M incubated for 48 hrs by sulforhodamine B assay relative to control
Aspergillus fumigatus [2] = experiment: Antifungal activity against Aspergillus fumigatus at 100 ug/ml by disc diffusion method; settings: read-out: IZ
SR = experiment: Growth inhibition of human SR cells at 10^-5 M incubated for 48 hrs by sulforhodamine B assay relative to control
OVCAR-3 = experiment: Growth inhibition of human OVCAR3 cells at 10^-5 M incubated for 48 hrs by sulforhodamine B assay relative to control
OVCAR-5 = experiment: Growth inhibition of human OVCAR5 cells at 10^-5 M incubated for 48 hrs by sulforhodamine B assay relative to control
BT-549 = experiment: Growth inhibition of human BT549 cells at 10^-5 M incubated for 48 hrs by sulforhodamine B assay relative to control
SK-MEL-2 = experiment: Growth inhibition of human SK-MEL-2 cells at 10^-5 M incubated for 48 hrs by sulforhodamine B assay relative to control
SK-OV-3 = experiment: Growth inhibition of human SKOV3 cells at 10^-5 M incubated for 48 hrs by sulforhodamine B assay relative to control
Hs-578T = experiment: Growth inhibition of human Hs 578T cells at 10^-5 M incubated for 48 hrs by sulforhodamine B assay relative to control
OVCAR-4 = experiment: Growth inhibition of human OVCAR4 cells at 10^-5 M incubated for 48 hrs by sulforhodamine B assay relative to control
EKVX = experiment: Growth inhibition of human EKVX cells at 10^-5 M incubated for 48 hrs by sulforhodamine B assay relative to control
SW-620 = experiment: Growth inhibition of human SW620 cells at 10^-5 M incubated for 48 hrs by sulforhodamine B assay relative to control
MDA-MB-468 = experiment: Growth inhibition of human MDA-MB-468 cells at 10^-5 M incubated for 48 hrs by sulforhodamine B assay relative to control
Candida albicans [3] = experiment: Antifungal activity against Candida albicans at 100 ug/ml by disc diffusion method; settings: read-out: IZ
NCI-H23 = experiment: Growth inhibition of human NCI-H23 cells at 10^-5 M incubated for 48 hrs by sulforhodamine B assay relative to control
SN12C = experiment: Growth inhibition of human SN12C cells at 10^-5 M incubated for 48 hrs by sulforhodamine B assay relative to control
Aspergillus fumigatus [4] = experiment: Antifungal activity against Aspergillus fumigatus after 24 hrs by serial dilution method

Fc1ccc2nc(Cl)c(Cn3nnc(CSc4ccccc4)n3)cc2c1
growth inhibition (GI) (UACC-62): Active | growth inhibition (GI) (SF-539): Active | growth inhibition (GI) (786-0): Active | growth inhibition (GI) (MDA-MB-231): Active | growth inhibition (GI) (UACC-257): Active | growth inhibition (GI) (SNB-75): Active | growth inhibition (GI) (HCC 2998): Active | growth inhibition (GI) (Malme-3M): Active | growth inhibition (GI) (LOX IMVI): Active | MIC (Candida albicans [1]): 50 µg/mL (≈ 130 µM) | growth inhibition (GI) (M14): Active | growth inhibition (GI) (OVCAR-8): Active | growth inhibition (GI) (HCT-15): Active | growth inhibition (GI) (SK-MEL-28): Active | growth inhibition (GI) (NCI-H460): Active | growth inhibition (GI) (UO-31): Active | growth inhibition (GI) (MCF7): Active | growth inhibition (GI) (SNB-19): Active | growth inhibition (GI) (MDA-MB-435): Active | growth inhibition (GI) (COLO 205): Active | growth inhibition (GI) (ACHN): Active | growth inhibition (GI) (KM12): Active | growth inhibition (GI) (NCI/ADR-RES): Active | growth inhibition (GI) (TK-10): Active | growth inhibition (GI) (HL-60(TB)): Active | growth inhibition (GI) (SK-MEL-5): Active | growth inhibition (GI) (T47D): Active | growth inhibition (GI) (K562): Active | growth inhibition (GI) (SF-295): Active | zone of inhibition at 100 µg/mL (Aspergillus fumigatus [2]): 13 mm | growth inhibition (GI) (SR): Active | growth inhibition (GI) (OVCAR-3): Active | growth inhibition (GI) (OVCAR-5): Active | growth inhibition (GI) (BT-549): Active | growth inhibition (GI) (SK-MEL-2): Active | growth inhibition (GI) (SK-OV-3): Active | growth inhibition (GI) (Hs-578T): Active | growth inhibition (GI) (OVCAR-4): Active | growth inhibition (GI) (EKVX): Active | growth inhibition (GI) (SW-620): Active | growth inhibition (GI) (MDA-MB-468): Active | zone of inhibition at 100 µg/mL (Candida albicans [3]): 18 mm | growth inhibition (GI) (NCI-H23): Active | growth inhibition (GI) (SN12C): Active | MIC (Aspergillus fumigatus [4]): 2.5 µg/mL (≈ 6.48 µM)

Fc1ccc2nc(Cl)c(Cn3nnnc3Cc3ccccc3)cc2c1
growth inhibition (GI) (UACC-62): Active | growth inhibition (GI) (SF-539): Active | growth inhibition (GI) (786-0): Active | growth inhibition (GI) (MDA-MB-231): Active | growth inhibition (GI) (UACC-257): Active | growth inhibition (GI) (SNB-75): Active | growth inhibition (GI) (HCC 2998): Active | growth inhibition (GI) (Malme-3M): Active | growth inhibition (GI) (LOX IMVI): Active | MIC (Candida albicans [1]): 25 µg/mL (≈ 70.7 µM) | growth inhibition (GI) (M14): Active | growth inhibition (GI) (OVCAR-8): Active | growth inhibition (GI) (HCT-15): Active | growth inhibition (GI) (SK-MEL-28): Active | growth inhibition (GI) (NCI-H460): Active | growth inhibition (GI) (UO-31): Active | growth inhibition (GI) (MCF7): Active | growth inhibition (GI) (SNB-19): Active | growth inhibition (GI) (MDA-MB-435): Active | growth inhibition (GI) (COLO 205): Active | growth inhibition (GI) (ACHN): Active | growth inhibition (GI) (KM12): Active | growth inhibition (GI) (NCI/ADR-RES): Active | growth inhibition (GI) (TK-10): Active | growth inhibition (GI) (HL-60(TB)): Active | growth inhibition (GI) (SK-MEL-5): Active | growth inhibition (GI) (T47D): Active | growth inhibition (GI) (K562): Active | growth inhibition (GI) (SF-295): Active | zone of inhibition at 100 µg/mL (Aspergillus fumigatus [2]): 10 mm | growth inhibition (GI) (SR): Active | growth inhibition (GI) (OVCAR-3): Active | growth inhibition (GI) (OVCAR-5): Active | growth inhibition (GI) (BT-549): Active | growth inhibition (GI) (SK-MEL-2): Active | growth inhibition (GI) (SK-OV-3): Active | growth inhibition (GI) (Hs-578T): Active | growth inhibition (GI) (OVCAR-4): Active | growth inhibition (GI) (EKVX): Active | growth inhibition (GI) (SW-620): Active | growth inhibition (GI) (MDA-MB-468): Active | zone of inhibition at 100 µg/mL (Candida albicans [3]): 13 mm | growth inhibition (GI) (NCI-H23): Active | growth inhibition (GI) (SN12C): Active | MIC (Aspergillus fumigatus [4]): 10 µg/mL (≈ 28.3 µM)
